In the NIST ThermoML archive (doi:10.1016/j.fluid.2005.08.021) one finds Normal melting temperature data, which are given here for three molecules.

Structures are written as SMILES. ± gives the expanded uncertainty stated by the source.

The conditions of this data set: Crystal; visual observation.
In the case of `CC(C)(C)O` [2-methylpropan-2-ol], the Normal melting temperature worked out at 25.6 ± 0.4 °C. For `Oc1cccc(Cl)c1` [3-chlorophenol], the Normal melting temperature was found to be 32.4 ± 0.4 °C. As to `Oc1ccc(Cl)cc1` [4-chlorophenol], the Normal melting temperature is 42.5 ± 0.4 °C.
